Data reported in article PMC10451648 (Antibiotics, 2023).
Converted amounts (≈) assume the structure as drawn. “Also recorded” adds a separate entry of the source. Square brackets hold non-standard residues; d marks the D form. Peptide text beside a SMILES is read from it. Aib = CC(C)(N)C(=O)O

Legend:
Escherichia coli DH5α = format: cell-based; details: broth microdilution, 10^4 CFUs per mL, 18 h at 35 °C; MIC = lowest concentration that completely inhibited bacterial growth; final conc. 0.39 to 100
Method: (§1) The antimicrobial activities of peptides 1–8 against Gram-positive Staphylococcus aureus, Gram-negative Escherichia coli DH5α, Pseudomonas aeruginosa, and multidrug-resistant P. aeruginosa (MDRP) were evaluated. The minimum inhibitory concentration (MIC) against these bacteria was measured as an indicator of antimicrobial activity, and the results are discussed in Table 2.
(§2) One type of Gram-positive bacteria, S. aureus NBRC 13276, and three Gram-negative bacteria, E. coli DH5α, P. aeruginosa NBRC 13275, and MDRP, were selected for the evaluation of the antimicrobial activity of the synthesized peptides. The selected bacterial strains were obtained from the Biological Resource Center, NITE (NBRC; Tokyo, Japan), and Escherichia coli DH5α cells were purchased from BioDynamics Laboratory, Inc. (Tokyo, Japan). The antimicrobial activities of the tested peptides 1–8 against each stain were examined by the standard broth microdilution method, as previously reported. Briefly, the bacteria were seeded and grown overnight at 37 °C on Agar media for other organisms i (Agar medium) and then collected with the media for other organisms ii (liquid medium), according to the 17th revision of Japanese Pharmacopoeia. Next, 10 μL of the peptide solution per well was added to each well of a sterile 96-well plate, and 90 μL per well of inoculation was mixed with 10^4 CFUs (colony forming units) per mL and added to each well, and the plate was incubated for 18 h at 35 °C.

Proteinase K = Proteinase K (Parengyodontium album, UniProt P06873); test: Digestion assay with proteinase K; format: in vitro ADME; details: 0.002% (v/v) proteinase K, peptide 1 mM, 37 °C, 24 h; fragments by LC-MS
Proteinase K, sequence (P06873 106-384): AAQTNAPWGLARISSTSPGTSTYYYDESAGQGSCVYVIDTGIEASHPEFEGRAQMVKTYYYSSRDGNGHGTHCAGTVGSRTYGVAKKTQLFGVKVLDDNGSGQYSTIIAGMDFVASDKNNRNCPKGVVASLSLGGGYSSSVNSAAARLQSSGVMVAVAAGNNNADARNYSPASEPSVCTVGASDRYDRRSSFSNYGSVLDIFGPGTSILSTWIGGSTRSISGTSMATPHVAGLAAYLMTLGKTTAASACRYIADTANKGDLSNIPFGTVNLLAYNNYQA
Method: The chemical stability of 17KKV-Aib (1) was investigated using a digestion assay with proteinase K, which is a widely used representative protease for assessing sensitivity to digestive enzymes. Proteinase K is widely recognized for its ability to cleave peptide bonds on the carboxylic sides of aliphatic, aromatic, or highly hydrophobic amino acids. Peptide 1 was treated with proteinase K for 24 h, and the remaining peptide fragments were evaluated using liquid phase chromatography–mass spectrometry (LC-MS) analysis. […] All the peptides were synthesized using Fmoc-assisted solid-phase methods by Liberty Blue. […]
Each peptide (1 mM) was treated with 0.002% (v/v) Proteinase K, and the mixture was incubated at 37 °C for 2–24 h. […] The residual peptides were assessed by analytical HPLC using an InertSustainSwift C18 column (3 µm, 25 cm × 4.6 mm, solvent A: water containing 0.1% TFA, solvent B: MeCN containing 0.1% TFA, flow rate: 1.0 mL/min, gradient: 10–90% gradient of solvent B over 30 min). The digestion assay was performed in two independent experiments, and the average values from them were calculated. […]
Figure 4 Chemical stability of the peptides 1–8 against proteinase K. Each peptide was incubated with 0.002% (v/v) proteinase K for the indicated times at 37 °C, and the residuals were evaluated by LC-MS. […]

human red blood cells = test: Hemolysis activity against red blood cells; details: human RBCs in 172 mM Tris-HCl pH 7.6, 30 min at 37 °C, absorbance 535 nm; DMSO = 0%, M-Lycotoxin = 100%; final peptide conc. 100 to 0.39
Method: AMPs primarily target microbial membranes, leading to their antimicrobial activity through membrane lysis. However, it is important to consider their potential effects on human cell membranes, as this could raise concerns regarding cytotoxicity. […] Hemolytic activity was assessed by measuring the absorption at 535 nm, which indicates the leakage of red blood cell cytoplasmic contents and hemoglobin.
Human red blood cells (RBCs) were supplied by the Japanese Red Cross Society (Tokyo, Japan). The hemolytic assay of the synthesized peptides was performed as previously reported. Briefly, 5.0 mL of the total erythrocytes were washed three times with 172 mM Tris-HCl buffer (pH = 7.6, wash buffer:WB) and 1.0 mL of precipitated erythrocytes was diluted with 9.0 mL of WB. Then, 0.5 mL of the suspension was diluted in WB, and 50 µL of RBC solution was incubated with 50 µL of each peptide for 30 min at 37 °C (final peptide conc. from 100 to 0.39 μM). The suspensions were then centrifuged at 400 rpm for 5 min. The absorbance of the supernatant was measured at a wavelength of 535 nm. M-Lycotoxin [22], which is a typical hemolytic toxic peptide derived from Wolf spider, was used as a positive control, and the absorbance of the sample from DMSO and M-Lycotoxin treatment was defined as 0 and 100%, respectively.

[1] = system: multidrug-resistant P. aeruginosa (MDRP); format: cell-based, Pseudomonas aeruginosa; details: multidrug-resistant (MDRP, 18 h)
Method: as §1, §2

P. aeruginosa NBRC 13275 = format: cell-based, Pseudomonas aeruginosa; details: NBRC 13275, 18 h
Method: as §1, §2

S. aureus NBRC 13276 = format: cell-based, Staphylococcus aureus; details: NBRC 13276, 18 h
Method: as §1, §2

With CC[C@H](C)[C@H](NC(=O)CN)C(=O)N[C@@H](CCCCN)C(=O)N[C@@H](CCCCN)C(=O)N[C@@H](Cc1ccccc1)C(=O)N[C@@H](CC(C)C)C(=O)N[C@@H](CCCCN)C(=O)N[C@@H](CO)C(=O)NC(C)(C)C(=O)N[C@@H](CCCCN)C(=O)N[C@@H](CCCCN)C(=O)N[C@@H](Cc1ccccc1)C(=O)N[C@H](C(=O)N[C@@H](CCCCN)C(=O)NC(C)(C)C(=O)N[C@@H](Cc1ccccc1)C(=O)N[C@@H](CCCCN)C(N)=O)C(C)C [Peptide 1] (H-GIKKFLKS[Aib]KKFVK[Aib]FK-NH2) the “MIC, E. Coli DH5α, Gram(−)” value (Escherichia coli DH5α) was 1.56 µM (≈ 3.11 µg/mL), the “Cleavage site upon proteinase K treatment” value (Proteinase K) was “between 5th Phe and 6th Leu and 16th Phe and 17th Lys residues; also recorded: between the fifth Phe and sixth Leu residues” and the “Hemolysis (concentration at which hemolytic activity is exhibited)” value (human red blood cells) was 100 µM. The “MIC, MDRP” value [1] was 6.25 µM (≈ 12.5 µg/mL), the “MIC, P. aeruginosa, Gram(−)” value (P. aeruginosa NBRC 13275) was 3.125 µM (≈ 6.24 µg/mL) and the “MIC, S. aureus, Gram(+)” value (S. aureus NBRC 13276) was 12.5 µM (≈ 24.9 µg/mL).
